Results: DBAASP
Values after ≈ are worked out from the molar mass of the structure shown. Blank lines part the entries; values can stand above or below the molecule they belong to.

Key:
Assay in all cases: ≥ marks a high value that may be exact or a test limit, other limits are often not marked, values filed in µg/mL are converted to µM
[1] = system: Bacillus subtilis CMCC 63501
[2] = system: Escherichia coli CICC 10670
[3] = system: Listeria monocytogenes ATCC 19115
[4] = system: Salmonella enterica subsp. enterica serovar Typhimurium ATCC 14028
[5] = system: Staphylococcus aureus ATCC 6538
[6] = system: Acinetobacter baumannii ATCC 19606
Bacillus megaterium = system: Bacillus megaterium
[7] = system: Candida albicans ATCC 90028
[8] = system: Candida parapsilosis ATCC 22019
[9] = system: Enterococcus faecalis ATCC 29212
[10] = system: Escherichia coli ATCC 25922
[11] = system: Escherichia coli ATCC 35218
Escherichia coli ML-35p = system: Escherichia coli ML-35p
[12] = system: Klebsiella pneumoniae ATCC 13883
Listeria ivanovii = system: Listeria ivanovii
[13] = system: Pseudomonas aeruginosa ATCC 27853
Saccharomyces cerevisiae = system: Saccharomyces cerevisiae
[14] = system: Salmonella enterica subsp. enterica serovar Enteritidis
[15] = system: Staphylococcus aureus ATCC 25923
[16] = system: Staphylococcus aureus ATCC 43300
[17] = system: Staphylococcus aureus ATCC BAA-44
[18] = system: Staphylococcus aureus ST1065
[19] = system: Staphylococcus aureus ATCC 12600
[20] = system: Streptococcus mutans ATCC 25175
[21] = system: Enterococcus faecalis ATCC 51299
[22] = system: Enterococcus faecium ATCC 19434
[23] = system: Klebsiella pneumoniae ATCC 49472
[24] = system: Klebsiella pneumoniae ATCC BAA-2814
[25] = system: Staphylococcus aureus ATCC BAA-2312
[26] = system: Escherichia coli ATCC 2592
[27] = system: Micrococcus luteus ATCC 9341
[28] = system: Pseudomonas aeruginosa ATCC 9027
[29] = system: Staphylococcus aureus 1550
Escherichia coli UB1005 = system: Escherichia coli UB1005
[30] = system: Salmonella typhimurium ATCC 7731
[31] = system: Staphylococcus aureus ATCC 29213
[32] = system: Staphylococcus epidermidis ATCC 12228
[33] = system: Aspergillus oryzae NBRC 100959
[34] = system: Candida viswanathii NBRC 10321
[35] = system: Escherichia coli NBRC 3972
[36] = system: Micrococcus luteus NBRC 3333
[37] = system: Pseudomonas putida NBRC 100650
[38] = system: Staphylococcus epidermidis NBRC 12993

SMILES: CC[C@H](C)[C@H](NC(=O)[C@H](C)NC(=O)CNC(=O)[C@H](Cc1ccccc1)NC(=O)[C@H](CC(C)C)NC(=O)CN)C(=O)N[C@@H](C)C(=O)NCC(=O)N[C@@H](Cc1ccccc1)C(=O)N[C@H](C(=O)N[C@@H](CCCCN)C(=O)N[C@@H](CCCCN)C(=O)NCC(=O)N[C@@H](Cc1c[nH]c2ccccc12)C(=O)N1CCC[C@H]1C(=O)NCC(=O)N[C@@H](CC(C)C)C(=O)N[C@H](C(=O)N[C@@H](CCCCN)C(=O)NCC(N)=O)C(C)C)[C@@H](C)CC [GLFGAIAGFIKKGWPGLVKG]
- MIC [10]: 7.8 µM (≈ 15.7 µg/mL)
- MIC [13]: 15.5 µM (≈ 31.2 µg/mL)
- MIC [19]: 3.9 µM (≈ 7.86 µg/mL)
- MIC [20]: 1.9 µM (≈ 3.83 µg/mL)

SMILES: CC[C@H](C)[C@H](NC(=O)[C@H](C)NC(=O)[C@H](CCCCN)NC(=O)[C@H](Cc1ccc(O)cc1)NC(=O)[C@@H](N)CC(C)C)C(=O)N[C@@H](CCCN=C(N)N)C(=O)N[C@@H](CCCN=C(N)N)C(=O)N[C@@H](CCCCN)C(N)=O [LYKAIRRK]
- MIC [1]: ≥ 128 µM
- MIC [10]: > 128 µM
- MIC (Escherichia coli UB1005): ≥ 128 µM
- MIC [13]: > 128 µM
- MIC [4]: > 128 µM
- MIC [30]: ≥ 128 µM
- MIC [31]: > 128 µM
- MIC [32]: > 128 µM

SMILES: CC[C@H](C)[C@H](NC(=O)[C@H](CCSC)NC(=O)[C@H](CCCN=C(N)N)NC(=O)[C@H](CCCN=C(N)N)NC(=O)[C@H](CC(C)C)NC(=O)[C@H](Cc1ccc(O)cc1)NC(=O)[C@H](CCCN=C(N)N)NC(=O)[C@H](CCCCN)NC(=O)[C@@H](NC(=O)[C@H](CCCCN)NC(=O)[C@@H](N)CCCN=C(N)N)[C@@H](C)CC)C(=O)O [RKIKRYLRRMI]
- MIC [33]: 16.3 µM (≈ 25 µg/mL)
- MIC [34]: 8.15 µM (≈ 12.5 µg/mL)
- MIC [35]: 4.08 µM (≈ 6.25 µg/mL)
- MIC [36]: 2.04 µM (≈ 3.13 µg/mL)
- MIC [37]: 8.15 µM (≈ 12.5 µg/mL)
- MIC [38]: 4.08 µM (≈ 6.25 µg/mL)

The remaining lines, values ahead:

- MIC [1]: 10 µM (≈ 26 µg/mL)
- MIC [2]: ≥ 40 µM
- MIC [3]: 20 µM (≈ 51.9 µg/mL)
- MIC [4]: 20 µM (≈ 51.9 µg/mL)
- MIC [5]: 20 µM (≈ 51.9 µg/mL)
SMILES: CC(C)C[C@H](NC(=O)[C@H](Cc1ccccc1)NC(=O)[C@@H](NC(=O)[C@H](CC(C)C)NC(=O)[C@H](CC(=O)O)NC(=O)[C@H](CCCCN)NC(=O)[C@H](C)NC(=O)[C@@H](NC(=O)[C@H](CC(C)C)NC(=O)[C@@H](NC(=O)[C@H](C)N)[C@@H](C)O)[C@@H](C)O)[C@@H](C)O)C(=O)N[C@@H](CCC(N)=O)C(=O)N[C@@H](CC(=O)O)C(=O)N[C@@H](Cc1ccc(O)cc1)C(=O)N[C@@H](CCCCN)C(=O)N[C@@H](CCCCN)C(=O)N[C@H](C(=O)N[C@@H](CCCCN)C(=O)N[C@@H](CCCCN)C(=O)N[C@@H](CCCN=C(N)N)C(=O)N[C@H](C(=O)N[C@@H](CCCCN)C(=O)O)C(C)C)[C@@H](C)O [ATLTAKDLTFLQDYKKTKKRVK]

- MIC [6]: 25 µM (≈ 40 µg/mL)
- MIC (Bacillus megaterium): 1.56 µM (≈ 2.5 µg/mL)
- MIC [7]: ≥ 100 µM
- MIC [8]: ≥ 50 µM
- MIC [9]: 12.5 µM (≈ 20 µg/mL)
- MIC [10]: 25 µM (≈ 40 µg/mL)
- MIC [11]: ≥ 50 µM
- MIC (Escherichia coli ML-35p): ≥ 50 µM
- MIC [12]: ≥ 100 µM
- MIC (Listeria ivanovii): 5 µM (≈ 8 µg/mL)
- MIC [13]: 60 µM (≈ 96 µg/mL)
- MIC (Saccharomyces cerevisiae): 12.5 µM (≈ 20 µg/mL)
- MIC [14]: ≥ 100 µM
- MIC [15]: 3.12 µM (≈ 4.99 µg/mL)
- MIC [16]: 3.1 µM (≈ 4.96 µg/mL)
- MIC [17]: 3.12 µM (≈ 4.99 µg/mL)
- MIC [18]: 3.12 µM (≈ 4.99 µg/mL)
SMILES: CC[C@H](C)[C@H](NC(=O)CNC(=O)[C@H](C)NC(=O)[C@H](CC(C)C)NC(=O)[C@H](C)NC(=O)[C@@H]1CCCN1C(=O)[C@H](CC(C)C)NC(=O)[C@@H](N)Cc1ccccc1)C(=O)N[C@@H](C)C(=O)NCC(=O)N[C@@H](CC(C)C)C(=O)N[C@@H](CC(C)C)C(=O)NCC(=O)N[C@@H](CCCCN)C(=O)N[C@H](C(=O)N[C@@H](Cc1ccccc1)C(N)=O)[C@@H](C)CC [FLPALAGIAGLLGKIF]

- MIC [21]: ≥ 250 µM
- MIC [22]: ≥ 250 µM
- MIC [11]: ≥ 62.5 µM
- MIC [23]: ≥ 125 µM
- MIC [24]: ≥ 125 µM
- MIC [13]: > 125 µM
- MIC [4]: 125 µM (≈ 282 µg/mL)
- MIC [19]: ≥ 250 µM
- MIC [25]: ≥ 250 µM
SMILES: CC[C@H](C)[C@H](NC(=O)[C@H](CCC(N)=O)NC(=O)[C@H](CO)NC(=O)[C@H](C)NC(=O)[C@H](CC(C)C)NC(=O)[C@H](Cc1cnc[nH]1)NC(=O)[C@@H](NC(=O)[C@H](CC(C)C)NC(=O)[C@H](CC(C)C)NC(=O)[C@H](CCC(=O)O)NC(=O)[C@H](CCCCN)NC(=O)CNC(=O)[C@H](C)NC(=O)CNC(=O)[C@H](CCCCN)NC(=O)[C@H](Cc1ccccc1)NC(=O)[C@H](Cc1ccccc1)NC(=O)[C@H](CC(=O)O)NC(=O)[C@H](CC(C)C)NC(=O)[C@H](CC(C)C)NC(=O)CN)[C@@H](C)O)C(N)=O [GLLDFFKGAGKELLTHLASQI]

- MIC [26]: 8 µM (≈ 10 µg/mL)
- MIC [27]: 3.2 µM (≈ 4 µg/mL)
- MIC [28]: 4 µM (≈ 5 µg/mL)
- MIC [29]: 17.6 µM (≈ 22 µg/mL)
- MIC [5]: 2.49 µM (≈ 3.12 µg/mL)
SMILES: CC(C)[C@H](NC(=O)[C@H](CCCCN)NC(=O)[C@H](Cc1ccccc1)NC(=O)[C@@H](NC(=O)[C@@H](NC(=O)[C@H](CCCCN)NC(=O)[C@@H](N)CCCCN)C(C)C)C(C)C)C(=O)N[C@@H](CCCCN)C(=O)N[C@@H](Cc1ccccc1)C(=O)N[C@@H](CCCCN)C(=O)O [KKVVFKVKFK]
